Here are results for 25 compounds from US9169240B2, “Ketone linked benzothiazole inhibitors of endothelial lipase” (BRISTOL-MYERS SQUIBB COMPANY, priority 2012, dated 2015).

Endothelial lipase (EL), sequence (Q9Y5X9 21-500): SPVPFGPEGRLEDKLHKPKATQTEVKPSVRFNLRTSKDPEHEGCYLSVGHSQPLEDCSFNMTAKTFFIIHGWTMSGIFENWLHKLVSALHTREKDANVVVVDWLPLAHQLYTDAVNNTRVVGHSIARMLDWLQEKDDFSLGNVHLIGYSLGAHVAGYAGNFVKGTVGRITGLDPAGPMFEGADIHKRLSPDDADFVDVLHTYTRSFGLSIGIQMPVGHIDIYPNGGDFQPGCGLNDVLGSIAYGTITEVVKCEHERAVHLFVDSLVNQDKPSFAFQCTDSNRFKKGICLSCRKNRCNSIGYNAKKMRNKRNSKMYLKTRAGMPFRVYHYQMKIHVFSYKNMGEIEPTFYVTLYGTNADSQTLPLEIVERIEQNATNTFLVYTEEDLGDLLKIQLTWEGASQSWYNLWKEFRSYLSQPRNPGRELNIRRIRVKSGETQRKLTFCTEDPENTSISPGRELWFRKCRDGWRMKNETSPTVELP

This assay has as its target Endothelial lipase (EL) (Homo sapiens (Human), UniProt Q9Y5X9). The assay is described as follows: Endothelial lipase (EL) activity assay with fluorescent substrate A10070 in DMPG vesicles. It is filed as biochemical. The procedure: Endothelial lipase activity was measured using a fluorescent substrate, A10070, (Invitrogen, CA) doped into an artificial vesicle containing DMPG (Avanti Polar Lipids) as the excipient. Vesicles were prepared by combining 285 μL of 1 mM DMPG in a 1:1 mixture of MeOH and CHCl3 with 15 μL of 1 mM A10070 in a 1:1 mixture of MeOH and CHCl3. The mixture was dried under nitrogen and resuspended in 150 μL of 50 mM HEPES pH 8.0 buffer containing 100 mM NaCl and 0.2 mM EDTA. The sample was allowed to sit at rt for 15 min and then was sonicated 3×4 mins on ice with a Branson Sonicator using duty cycle 1. This preparation provides vesicles with a mole fraction of 0.05 for the FRET substrate.
The enzymatic assay was measured using white, opaque 96-well half area plates. Each well contained 60 μL of assay buffer (50 mM HEPES pH 8.0, 50 mM NaCl and 1 mM CaCl2) and 2 ul of a DMSO solution containing compound of interest. Conditioned media obtained from HT-1080 cells, which were transformed by RAGE technology (Athersys) to overexpress endogenous EL, was added and the reaction was allowed to incubate for 20 min at 37° C. with gentle agitation. The reaction was started by the addition of 20 μL of a 1:4 dilution of vesicles. The final total reaction volume was 100 μL. The reaction rates were measured on a Gemini plate reader with an excitation wavelength of 488 nm and an emission of 530 nm. Readings were taken every 20 seconds for 10 min with agitation between each reading. The slope of the linear portion of the readout was used to calculate the rate of the reaction.
`NS(=O)(=O)NCCc1nnc(C(=O)c2nc3ccc(-c4ccccc4)cc3s2)o1` [Example 28, N-(2-(5-((6-phenyl-1,3-benzothiazol-2-yl)carbonyl)-1,3,4-oxadiazol-2-yl)ethyl)sulfamide] displayed an IC50 of 36 nM.

Take `CN1CCC(Nc2nnc(C(=O)c3nc4ccc(-c5ccccc5)cc4s3)o2)C1=O` (stereo not shown) [Example 71, 1-methyl-3-((5-(6-phenylbenzo[d]thiazole-2-carbonyl)-1,3,4-oxadiazol-2-yl)amino)pyrrolidin-2-one]: the IC50 worked out at 22 nM. As for `O=C(c1nnc(NCCc2ccncc2)o1)c1nc2ccc(-c3ccccc3)cc2s1` [Example 73, (6-phenylbenzo[d]thiazol-2-yl)(5-((2-(pyridin-4-yl)ethyl)amino)-1,3,4-oxadiazol-2-yl)methanone], the figure is 180 nM; as for `CC(C)(C)CN1CC(c2nnc(C(=O)c3nc4ccc(-c5ccccc5)cc4s3)o2)C1` [Example 42], 20 nM; as for `O=C(c1nnc(N[C@H]2CCNC2=O)o1)c1nc2ccc(-c3ccccc3)cc2s1` [Example 53, (S)-3-((5-(6-phenylbenzo[d]thiazole-2-carbonyl)-1,3,4-oxadiazol-2-yl)amino)pyrrolidin-2-one], less than 10 nM.

On to `O=C(c1nnc(N[C@H]2CCNC2=O)o1)c1nc2c(F)cc(-c3ccccc3)cc2s1` [Example 55, (S)-3-((5-(4-fluoro-6-phenylbenzo[d]thiazole-2-carbonyl)-1,3,4-oxadiazol-2-yl)amino)pyrrolidin-2-one], for which the IC50 worked out at 10 nM. Under `NS(=O)(=O)CCNc1nnc(C(=O)c2nc3ccc(-c4ccccc4)cc3s2)o1` [Example 72, 2-((5-(6-phenylbenzo[d]thiazole-2-carbonyl)-1,3,4-oxadiazol-2-yl)amino)ethanesulfonamide] stands 88 nM. Regarding `O=C(c1nnc(NC2CC2)o1)c1nc2ccc(-c3ccc(F)cc3)cc2s1` [Example 66, (5-(cyclopropylamino)-1,3,4-oxadiazol-2-yl)(6-(4-fluorophenyl)benzo[d]thiazol-2-yl)methanone], the IC50 was found to be 290 nM. For the compound `CC1(Cc2nnc(C(=O)c3nc4ccc(-c5ccc(F)cc5)cc4s3)o2)NC(=O)NC1=O` (stereo not shown) [Example 35, 5-((5-(6-(4-fluoro-phenyl)benzo[d]thiazole-2-carbonyl)-1,3,4-oxadiazol-2-yl)methyl)-5-methyl-imidazolidine-2,4-dione], the IC50 was less than 10 nM.

In the case of `O=C(c1nnc(N2CC[C@H](OCc3ccccc3)C2)o1)c1nc2ccc(-c3ccccc3)cc2s1` [Example 81, (S)-(5-(3-(benzyloxy)pyrrolidin-1-yl)-1,3,4-oxadiazol-2-yl)(6-phenylbenzo[d]thiazol-2-yl)methanone], the IC50 is 490 nM.

For `CC1(Cc2nnc(C(=O)c3nc4ccc(-c5ccccc5)cc4s3)o2)NC(=O)NC1=O` (stereo not shown) [Example 34, 5-methyl-5-((5-(6-phenylbenzo[d]thiazole-2-carbonyl)-1,3,4-oxadiazol-2-yl)methyl)-imidazol-idine-2,4-dione], the half-inhibitory concentration (IC50) was less than 10 nM. The compound `CN1CCC(Nc2nnc(C(=O)c3nc4ccc(-c5ccccc5)cc4s3)o2)C1=O` (stereo not shown) [Example 70, 1-methyl-3-((5-(6-phenylbenzo[d]thiazole-2-carbonyl)-1,3,4-oxadiazol-2-yl)amino)pyrrolidin-2-one] showed an IC50 of 190 nM. As for `O=C(c1nnc(CCc2nc3ccccc3[nH]2)o1)c1nc2c(F)cc(-c3ccccc3)cc2s1` [Example 14, (5-(2-(1H-benzo[d]imidazol-2-yl)ethyl)-1,3,4-oxadiazol-2-yl)(4-fluoro-6-phenylbenzo[d]thiazol-2-yl)methanone], the figure is less than 10 nM.

The compound `CC(C)NC(=O)CNc1nnc(C(=O)c2nc3ccc(-c4ccccc4)cc3s2)o1` [Example 74, N-isopropyl-2-((5-(6-phenylbenzo [d]thiazole-2-carbonyl)-1,3,4-oxadiazol-2-yl)amino)acetamide] showed an IC50 of 150 nM.

The compound `O=C(c1nnc(NC2CCCNC2=O)o1)c1nc2ccc(-c3ccccc3)cc2s1` (single isomer, unassigned) [Example 77, 3-((5-(6-phenylbenzo[d]thiazole-2-carbonyl)-1,3,4-oxadiazol-2-yl)amino)piperidin-2-one] yielded an IC50 of 140 nM.

Compound `O=C(c1nnc(NC2CCCNC2=O)o1)c1nc2ccc(-c3ccccc3)cc2s1` (single isomer, unassigned) [Example 78, 3-((5-(6-phenylbenzo[d]thiazole-2-carbonyl)-1,3,4-oxadiazol-2-yl)amino)piperidin-2-one] yielded an IC50 of 27 nM. With `CC(C)(C)OC(=O)N1CCC(c2nnc(C(=O)c3nc4ccc(-c5ccc(F)cc5)cc4s3)o2)CC1` [Example 18, tert-butyl 4-(5-(6-(4-fluorophenyl)benzo[d]thiazole-2-carbonyl)-1,3,4-oxadiazol-2-yl)piperidine-1-carboxylate], the IC50 is less than 10 nM. The compound `O=C(c1nnc(NCCc2ccc(F)cc2)o1)c1nc2ccc(-c3ccc(F)cc3)cc2s1` [Example 60, (5-((4-fluorophenethyl)amino)-1,3,4-oxadiazol-2-yl)(6-(4-fluorophenyl)benzo[d]thiazol-2-yl)methanone] yielded an IC50 of 56 nM.

With `COC(=O)[C@H](COC(C)(C)C)Nc1nnc(C(=O)c2nc3ccc(-c4ccc(F)cc4)cc3s2)o1` [Example 61, (S)-methyl 3-(tert-butoxy)-2-((5-(6-(4-fluorophenyl)benzo[d]thiazole-2-carbonyl)-1,3,4-oxadiazol-2-yl)amino)propanoate], inhibition was half-maximal at 140 nM (IC50). `O=C(c1nnc(N[C@H]2CCNC2=O)o1)c1nc2ccc(-c3ccc(F)cc3)cc2s1` [Example 54, (S)-3-((5-(6-(4-fluorophenyl)benzo [d]thiazole-2-carbonyl)-1,3,4-oxadiazol-2-yl)amino)pyrrolidin-2-one] gave an IC50 of less than 10 nM. Under `O=C(c1nnc(NCCc2ccccc2)o1)c1nc2ccc(-c3ccc(F)cc3)cc2s1` [Example 59, (6-(4-fluorophenyl)benzo[d]thiazol-2-yl)(5-(phenethylamino)-1,3,4-oxadiazol-2-yl)methanone] stands 49 nM. Compound `COc1ccc(CCNc2nnc(C(=O)c3nc4ccc(-c5ccc(F)cc5)cc4s3)o2)cc1` [Example 62, (6-(4-fluorophenyl)benzo[d]thiazol-2-yl)(5-((4-methoxyphenethyl)amino)-1,3,4-oxadiazol-2-yl)methanone] returned an IC50 of 240 nM. As for `CN(Cc1nnc(C(=O)c2nc3ccc(-c4ccccc4)cc3s2)o1)S(N)(=O)=O` [Example 27, N-methyl-N-((5-((6-phenyl-1,3-benzothiazol-2-yl)carbonyl)-1,3,4-oxadiazol-2-yl)methyl)sulfamide], the figure is 23 nM; as for `O=C(c1nnc(N2CC[C@H](c3ccccc3)C2)o1)c1nc2ccc(-c3ccccc3)cc2s1` [Example 80, (R)-(6-phenylbenzo[d]thiazol-2-yl)(5-(3-phenylpyrrolidin-1-yl)-1,3,4-oxadiazol-2-yl)methanone], 450 nM. Under `O=C(c1nnc(CCc2ncc(-c3ccccc3)o2)o1)c1nc2ccc(-c3ccccc3)cc2s1` [Example 9, (6-phenylbenzo[d]thiazol-2-yl)(5-(2-(5-phenyloxazol-2-yl)ethyl)-1,3,4-oxadiazol-2-yl)methanone] stands less than 10 nM.

For orientation: IC50 means the concentration that gives 50% inhibition. Read a high IC50 as weaker potency.
